Source: US20210137930A1, “EXPANSION OF TUMOR INFILTRATING LYMPHOCYTES (TILS) WITH ADENOSINE A2A RECEPTOR ANTAGONISTS AND THERAPEUTIC COMBINATIONS OF TILS AND ADENOSINE A2A RECEPTOR ANTAGONISTS” (Iovance Biotherapeutics, Inc., priority 2018, published 2021)

Columns and labels:
peripheral blood B cells = details: cynomolgus monkeys; doses from 0.001-100 mg/kg; two experiments; WO 2015/119923; cited from earlier work
melanoma TILs [1] = experiment: Cell counts of melanoma TILs expanded in pre-REP and REP with CPI-444; type: cell-based, human; details: pre-REP 11 days, melanoma tumor fragments pooled
Method: The expression of A2aR on TILs and the effect of an A2aR antagonist on TILs was evaluated by culturing melanoma tumor fragments or lung tumor fragments in both pre-REP and the REP phases either with or without the addition of CPI-444 (ciforadenant), an A2aR antagonist, which was obtained commercially from MedChemExpress, Inc., Monmouth Junction, N.J., USA. The experimental procedure is similar to that of Example 3 and Example 10, with the changes as described below.
Melanoma tumors and lung tumors were obtained from patients. The tumor samples were generally fragmented using sharp dissection into small pieces of about 3 mm×3 mm×3 mm. The TILs were cultured from these fragments using mechanical dissociation, using scalpel and forceps. Repeated cycles of mechanical dissociation and mixing were applied until only small tissue pieces are present. At the end of this process, the tumor fragments were placed into pre-REP culture. […]
After TIL harvesting, the TILs are phenotypically analyzed: (1) the total number of cells were counted with an automated cell counter; (2) Flow cytometry was used to determine the fraction of TILs that were CD4^+, CD8^+, within the subset of memory T-Cells, and to determine the presence/absence of A2aR and the expression level of A2aR. […]

melanoma TILs [2] = experiment: Flow cytometry of CD8+ and CD4+ subsets, melanoma TILs expanded with CPI-444; type: cell-based, human; details: melanoma TIL cultures treated with A2aR antagonist
From the text: (§1) After TIL harvesting, the TILs are phenotypically analyzed: (1) the total number of cells were counted with an automated cell counter; (2) Flow cytometry was used to determine the fraction of TILs that were CD4^+, CD8^+, within the subset of memory T-Cells, and to determine the presence/absence of A2aR and the expression level of A2aR.
(§2) FIG. 43 illustrates the results of flow cytometry analysis of CD8^+ and CD4^+ subsets for melanoma TILs obtained after the addition of the A2AR antagonist to pre-REP and REP cultures under various conditions. FIG. 44 and FIG. 45 illustrates flow cytometry analysis of CD8^+ and CD4^+ subsets for lung TILs (first and second lung tumor, respectively) obtained after the addition of CPI-444 to pre-REP and REP cultures under various conditions.

lung TILs = experiment: Flow cytometry of CD8+ and CD4+ subsets, lung TILs expanded with CPI-444; type: cell-based, human; details: lung TIL cultures
From the text: as §1, §2

Row | Molecule | peripheral blood B cell numbers (peripheral blood B cells) | Cell Count at end or preREP Culture (Millions of Cells) (melanoma TILs [1]; IL-2 + 12 nM CPI-444/100,000 Cells) | Cell Count at end or preREP Culture (Millions of Cells) (melanoma TILs [1]; IL-2 + 48 nM CPI-444/100,000 Cells) | CD8+ population (melanoma TILs [2]) | CD8+ population (lung TILs; at the 12 nM, 48 nM and 32 μM concentrations) | CD8+ TIL populations, response to 8 μM versus 32 μM (lung TILs; second tumor)
1 | PF-05082566: fully human immunoglobulin G2-lambda anti-4-1BB (CD137) agonist monoclonal antibody, Pfizer; SEQ ID NO:11 and 12 | either unchanged or decreased | – | – | – | – | –
2 | Cc1ccc(-c2nc(N)nc3c2nnn3Cc2cccc(CO[C@H]3CCOC3)n2)o1 [CPI-444, 7-(5-methylfuran-2-yl)-3-[[6-[[(3S)-oxolan-3-yl]oxymethyl]pyridin-2-yl]methyl]triazolo[4,5-d]pyrimidin-5-amine] | – | 8.7 Millions of Cells | 12.8 Millions of Cells | decrease | increase | modulated differently
